Laboratory results: patent publication US20230270718A1, “METHODS OF TREATING DIABETIC KIDNEY DISEASE” (Chinook Therapeutics, Inc., priority 2020, published 2023)
Where two headings read alike, the source gives them in different places.

Experiments:
[1] = test system: DKD patients; test: SONAR study, six week enrichment period, analyses by concomitant SGLT-2 inhibitor use; type: in vivo, human; set-up: key to UACR Final, Median / UACR Change, Median: UACR values in mg/g; conditions: for B-type Natriuretic Peptide, change: geometric mean; for UACR Change, Mean (SD) / UACR Change, Median / UACR Final, Mean (SD) / UACR Final, Median: enrichment atrasentan
Protocol: A double-blind, randomized, placebo-controlled trial of DKD patients was conducted at 689 sites in 41 countries. The trial was conducted in two phases, an enrichment period and a double-blind treatment period. For the enrichment period, eligible patients were 18-85 years old with type 2 diabetes, an estimated glomerular filtration rate (eGFR) of 25-75 mL/min per 1.73 m^2 of body surface area, a urine albumin-to-creatinine ratio (UACR) of 300-5000 mg/g, a serum albumin of at least 25 g/L, a brain natriuretic peptide (BNP) concentration (level) of no more than 200 pg/mL, a serum potassium of at least 3 to 5 mmol/L, and systolic blood pressure of 110-180 mm Hg. The patients were required to receive a stable, recommended or maximally tolerated dose of an ACE inhibitor or ARB for at least four weeks prior to beginning the enrichment period. Patients also received a diuretic prior to beginning the enrichment period. Exclusion criteria included: a diagnosis of or previous hospital admission for heart failure, a history of severe peripheral or facial edema, diagnosis of type 1 diabetes, history of pulmonary hypertension, pulmonary fibrosis, or any lung diseases requiring oxygen therapy, and known non-diabetic kidney disease. See Heerspink et al., Lancet 393:1937-1947 (2019).
See Heerspink et al., Diabetes Obes Metab., 20:1829-1835 (2018). 42 responder patients and 9 patients in the non-responder group had used a SGLT-2 inhibitor at the start of enrichment. […] It was concluded that the UACR reduction was consistent in both groups.
Referring to the following Table 1, case-control matched cohort data from the study is shown.
SGLT-2 inhibitors included canagliflozin (N=6), empagliflozin (N=4), dapagliflozin (N=3), and luseogliflozin (N=1).
Change in body weight was used as a surrogate for fluid retention. See, e.g., Hoekman, et al., Clin. J. Am. Soc. Nephrol. 2013; 9(3):490-498. The change in BNP was monitored as an additional surrogate for fluid retention (each 1 kg increase in body weight during the enrichment period was associated with a 7.3% increase in BNP (p-value<0.001)).

[2] = test system: DKD patients; conditions: enrichment period, cited from earlier work
[3] = test system: DKD patients; conditions: cited from earlier work
[4] = Table 2, case-control matched cohort (N = 14 vs N = 42), enrichment period
[5] = Table 5, combination matched cohort (N = 14 vs N = 42), enrichment period
[6] = Table 6, combination (N = 14) vs all atrasentan alone subjects (N = 5093), enrichment period
[7] = No prior or concomitant SGLT2, N 4768
[8] = Prior and concomitant sGLT2, N 5
[9] = atrasentan group, treatment period
[10] = of 1,325 patients, atrasentan 0.75 mg orally daily
[11] = of 1,325 responders, atrasentan 0.75 mg orally daily, median follow-up 2.2 years

CCCCN(CCCC)C(=O)CN1C[C@H](c2ccc3c(c2)OCO3)[C@@H](C(=O)O)[C@@H]1c1ccc(OC)cc1 [Atrasentan, (2R,3R,4S)-4-(1,3-benzodioxol-5-yl)-1-[2-(dibutylamino)-2-oxoethyl]-2-(4-methoxyphenyl)pyrrolidine-3-carboxylic acid]
Change in B-type Natriuretic Peptide (fluid retention) [1, 4]: 6.9%
Change in Systolic Blood Pressure (renal efficacy) [1, 4]: −9.2 mmHg
Change in body weight (fluid retention) [1, 4]: 1.1 kg
Change in eGFR (renal efficacy) [1, 4]: −0.6 ml/min/1.73 m^2
Change in hematocrit (fluid retention) [1, 4]: −2.5%
Change in hemoglobin (fluid retention) [1, 4]: -0.9 g/dL
Body weight, change [1, 5]: 0.6 kg
Systolic Blood Pressure, change [1, 5]: −6.7 mmHg
eGFR, change [1, 5]: −2.1 ml/min/1.73 m^2
B-type Natriuretic Peptide, change [1, 5]: 5.1%
Body weight, change [1, 6]: 0.6 kg
Systolic Blood Pressure, change [1, 6]: −4.7 mmHg
eGFR, change [1, 6]: −1.0 ml/min/1.73 m^2
B-type Natriuretic Peptide, change [1, 6]: 8.3%
body weight increased by ([1]; after six weeks, matched cohort, atrasentan alone): 0.6 kg
UACR Change, Mean (SD) ([1]; Concomitant sGLT2 only, N 64): −469.92 (680.739)
UACR Change, Median ([1]; Concomitant sGLT2 only, N 64): −311.00
UACR Final, Mean (SD) ([1]; Concomitant sGLT2 only, N 64): 809.47 (956.422)
UACR Final, Median ([1]; Concomitant sGLT2 only, N 64): 437.50
UACR Change, Mean (SD) [1, 7]: −365.00 (1213.365)
UACR Change, Median [1, 7]: −257.00
UACR Final, Mean (SD) [1, 7]: 891.95 (1352.518)
UACR Final, Median [1, 7]: 540.16
UACR Change, Mean (SD) ([1]; Prior SGLT2 only, N 6): −97.80 (194.266)
UACR Change, Median ([1]; Prior SGLT2 only, N 6): −101.00
UACR Final, Mean (SD) ([1]; Prior SGLT2 only, N 6): 1457.19 (1448.751)
UACR Final, Median ([1]; Prior SGLT2 only, N 6): 939.56
UACR Change, Mean (SD) [1, 8]: −109.71 (366.699)
UACR Change, Median [1, 8]: −261.00
UACR Final, Mean (SD) [1, 8]: 379.37 (556.751)
UACR Final, Median [1, 8]: 136.00
change in UACR from baseline ([2]; non-responders, with concomitant SGLT-2 inhibitor use): +10.4%
change in UACR from baseline ([2]; non-responders, without concomitant SGLT-2 inhibitor use): −1.3%
change in UACR from baseline ([2]; responders, with concomitant SGLT-2 inhibitor use): −53.2%
change in UACR from baseline ([2]; responders, without concomitant SGLT-2 inhibitor use): −48.8%
fluid retention and anemia adverse events ([3]; atrasentan group compared with placebo group): more frequent
patients who died, number [3, 9]: 58 patients
patients who died, percent [3, 9]: 4.4%
hospital admission for heart failure, number of patients [3, 10]: 47 patients
hospital admission for heart failure, percent of patients [3, 10]: 3.5%
patients with a primary composite renal endpoint event (doubling of serum creatinine or ESRD), number [3, 11]: 79 patients
patients with a primary composite renal endpoint event (doubling of serum creatinine or ESRD), percent [3, 11]: 6.0%
